Here are results for 1 compound from patent US7189351B2, “D-tagatose as an anti-biofilm agent” (priority 2001, dated 2007).

Experiment [1] concerns Actinomyces naeslundii PK29/Streptococcus mitis J22. Briefly: reversal of coaggregation, visual score. The format is cell-based. The settings on record: pair PK29/J22; sugar 750 mM; water score 4; scale 0 no visible to 4 maximum coaggregation. As for the experimental part:
(§1) Fifteen oral isolates, including both early colonizers (Streptococcus and Actinomyces) and late colonizers (Fusobacterium, Porphyromonas, Prevotella, Veillonella, Capnocytophaga, and Actinobacillus), were tested for their ability to coaggregate with each other, followed by testing for the reversal of coaggregation by the addition of D-tagatose. Bacterial strains used were of human gingival crevice origin. The coaggregation was examined visually by a scoring system ranging from 0 for no visible coaggregation to 4 for maximum coaggregation [Cisar J. O., Kolenbrander P. E., and McIntire F. C., “Specificity of coaggregation reactions between human oral streptococci and strains of Actinomyces viscosus or Actinomyces naeslundii”, Infect. Immun., 24:742–752. 1979]. D-Tagatose, at a concentration of less than 750 mM, completely reversed the coaggregation of 17 (60%) of 28 strong coaggregating pairs (with a coaggregation score of 2 or higher) tested. […] These D-tagatose sensitive coaggregations were D-galactose reversible as well.
(§2) Pairs of various species of oral bacteria were tested for coaggregation, and for reversal of coaggregation when D-tagatose or D-galactose was administered.

Experiment [2] deals with Actinomyces naeslundii PK29/Streptococcus morbillorum PK509. As to the kind of experiment: reversal of coaggregation, visual score. The format is cell-based. The settings on record: pair PK29/PK509; sugar 200 mM; water score 2; scale 0 no visible to 4 maximum coaggregation. The procedure: as §1, §2
Experiment [3] has as its system Actinomyces naeslundii PK947/Streptococcus mitis J22. Briefly: reversal of coaggregation, visual score. The settings on record: pair PK947/J22; sugar 200 mM; water score 2; scale 0 no visible to 4 maximum coaggregation. The format is cell-based. The procedure: as §1, §2
For experiment [4], the system named is Actinomyces naeslundii PK947/Streptococcus oralis C104. As to the kind of experiment: reversal of coaggregation, visual score. The settings on record: pair PK947/C104; sugar 200 mM; water score 2; scale 0 no visible to 4 maximum coaggregation. The format is cell-based. As for the experimental part: as §1, §2
Experiment [5] concerns Actinomyces naeslundii PK947/Streptococcus oralis SO34. As to the kind of experiment: reversal of coaggregation, visual score. The format is cell-based. The settings on record: pair PK947/SO34; sugar 200 mM; water score 3; scale 0 no visible to 4 maximum coaggregation. As for the experimental part: as §1, §2
The subject of experiment [6] is Actinomyces naeslundii PK29/Streptococcus oralis C104. As to the kind of experiment: reversal of coaggregation, visual score. The format is cell-based. Conditions: pair PK29/C104; sugar 750 mM; water score 4; scale 0 no visible to 4 maximum coaggregation. The procedure: as §1, §2
The test system of experiment [7] is Actinomyces naeslundii PK29/Streptococcus oralis SO34. As to the kind of experiment: reversal of coaggregation, visual score. The format is cell-based. The settings on record: pair PK29/SO34; sugar 750 mM; water score 4; scale 0 no visible to 4 maximum coaggregation. As for the experimental part: as §1, §2
Experiment [8] concerns Fusobacterium nucleatum PK1594/Actinobacillus actinomycetemcomitans JP2. Briefly: reversal of coaggregation, visual score. The format is cell-based. The settings on record: pair PK1594/JP2; sugar 600 mM; water score 3; scale 0 no visible to 4 maximum coaggregation. As for the experimental part: as §1, §2
In experiment [9] the test system is Fusobacterium nucleatum PK1594/Porphyromonas gingivalis PK1924. Briefly: reversal of coaggregation, visual score. The format is cell-based. The settings on record: pair PK1594/PK1924; sugar 400 mM; water score 4; scale 0 no visible to 4 maximum coaggregation. As for the experimental part: as §1, §2
Experiment [10] relates to Fusobacterium nucleatum PK1594/Veillonella atypica PK1910. Briefly: reversal of coaggregation, visual score. The format is cell-based. Conditions: pair PK1594/PK1910; sugar 200 mM; water score 3; scale 0 no visible to 4 maximum coaggregation. The procedure:
as §1, §2

The subject of experiment [11] is Prevotella loescheii PK1295/Streptococcus mitis J22. As to the kind of experiment: reversal of coaggregation, visual score. The format is cell-based. The settings on record: pair PK1295/J22; sugar 750 mM; water score 4; scale 0 no visible to 4 maximum coaggregation. As for the experimental part: as §1, §2
The test system of experiment [12] is Streptococcus morbillorum PK509/Prevotella loescheii PK1295. As to the kind of experiment: reversal of coaggregation, visual score. The format is cell-based. The settings on record: pair PK509/PK1295; sugar 600 mM; water score 2; scale 0 no visible to 4 maximum coaggregation. As for the experimental part: as §1, §2
Experiment [13] has as its system Streptococcus morbillorum PK509/Streptococcus oralis C104. Briefly: reversal of coaggregation, visual score. The format is cell-based. The settings on record: pair PK509/C104; sugar 750 mM; water score 3; scale 0 no visible to 4 maximum coaggregation. As for the experimental part: as §1, §2
In experiment [14] the test system is Streptococcus morbillorum PK509/Streptococcus oralis SO34. As to the kind of experiment: reversal of coaggregation, visual score. The format is cell-based. The settings on record: pair PK509/SO34; sugar 400 mM; water score 2; scale 0 no visible to 4 maximum coaggregation. The procedure: as §1, §2
Experiment [15] relates to Streptococcus morbillorum PK509/Veillonella atypica PK1910. Briefly: reversal of coaggregation, visual score. The format is cell-based. The settings on record: pair PK509/PK1910; sugar 400 mM; water score 2; scale 0 no visible to 4 maximum coaggregation. The procedure: as §1, §2
The subject of experiment [16] is Veillonella atypica PK1910/Streptococcus oralis C104. Briefly: reversal of coaggregation, visual score. The format is cell-based. The settings on record: pair PK1910/C104; sugar 200 mM; water score 3; scale 0 no visible to 4 maximum coaggregation. As for the experimental part: as §1, §2
Experiment [17] concerns Veillonella atypica PK1910/Streptococcus oralis SO34. Briefly: reversal of coaggregation, visual score. Conditions: pair PK1910/SO34; sugar 200 mM; water score 3; scale 0 no visible to 4 maximum coaggregation. The format is cell-based. As for the experimental part:
as §1, §2

Experiment [18] concerns Prevotella loescheii PK1295/Streptococcus oralis C104. Briefly: reversal of coaggregation, visual score. The format is cell-based. The settings on record: pair PK1295/C104; sugar 750 mM; water score 4; scale 0 no visible to 4 maximum coaggregation. As for the experimental part:
as §1, §2

The subject of experiment [19] is Prevotella loescheii PK1295/Streptococcus oralis SO34. Briefly: reversal of coaggregation, visual score. The format is cell-based. Conditions: pair PK1295/SO34; sugar 750 mM; water score 4; scale 0 no visible to 4 maximum coaggregation. As for the experimental part: as §1, §2
Experiment [20] deals with coaggregating pairs of oral isolates (early and late colonizers). Briefly: reversal of coaggregation among fifteen oral isolates (overall). The format is cell-based, bacterial strains of human gingival crevice origin. As for the experimental part: as §1, §2
The subject of experiment [21] is F. nucleatum PK1594 and P. gingivalis PK1924. As to the kind of experiment: phase-contrast photomicrographs of coaggregation. The format is cell-based, Fusobacterium nucleatum; Porphyromonas gingivalis. The settings on record: 400 mM final concentration.

Regarding `OC[C@@H](O)[C@@H](O)[C@H](O)[C@@H](O)CO` [D-Sorbitol], the coaggregation score in [1] turned out to be 4; in experiment [2], 2; in experiment [3] it was 2; in experiment [4], 1; in [5], 2; in experiment [6], 4. The coaggregation score in [7] amounted to 4; in [8], 2; in [9] it was 3; in experiment [10] it was 1; in experiment [11], 2; in [12], 0. The coaggregation score in [13] came to 1; in [14], 1; in experiment [15], 0; in experiment [16], 1; in experiment [17], 1; in experiment [18] it was 2. In experiment [19], the coaggregation score is 1. In [20] (D-tagatose and D-sorbitol at somewhat higher concentrations than D-galactose), the “plaque reversibility, comparison of Table 2” value is “markedly inferior”. Besides, the “effect on the coaggregating pairs tested” value in experiment [20] (in contrast to D-tagatose) is “little or no effect”. The “dissociation of coaggregate clumps” value in experiment [21] was “did not dissociate the clumps”.
